Among the data in BindingDB's records for doi:10.7270/Q2D21W1M (Nmmlsc, 2009) are EC50 values, retold here.

SMILES strings stand for the structures.

T1 sequence (G3V5T7 whole entry): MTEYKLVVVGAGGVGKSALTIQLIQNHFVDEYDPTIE

One test addresses T1, GTPase KRas [1-37] (Homo sapiens, UniProt G3V5T7).
T1 construct: 1-37
Description: Ras wt fluorescent nucleotide binding blockade – biochemical, additional analogs, wildtype, multiplex flow cytometry, Ki, SAR follow-up (AID 2038).
Conditions: not given
For orientation: Flow cytometry measures light scatter and fluorescence of single cells or particles in a stream.
A word on the EC50: it is the midpoint of the concentration-response curve. Read a low EC50 as a more potent agent. In turn, `O=C1NC(=O)/C(=C2/C(=O)Nc3ccccc32)N1` displayed a 50% effective concentration (EC50) of 30 µM.
In turn, `O=C1Nc2c(Br)cccc2C1=C1Nc2ccccc2C1=O` came in with a concentration for a half-maximal effect (EC50) of 30 µM.
The molecule `O=C1Nc2c(Cl)cccc2C1=C1Nc2ccccc2C1=O` gave an EC50 of 30 µM.
Still for that read-out and setting: then `C[C@@H](C(=O)O)c1cccc(Oc2ccccc2)c1` [calcium;2-(3-phenoxyphenyl)propanoic acid;hydrate], with 30 µM.
In turn, `O=C1N=c2c(Br)cccc2=C1c1[nH]c2ccccc2c1NO` [7-bromanyl-3-[3-(oxidanylamino)-1H-indol-2-yl]indol-2-one] yielded a half-maximal effective concentration (EC50) of 37.5 µM.
`COc1ccc2cc([C@H](C)C(=O)O)ccc2c1` [UNM-0000306098]: the midpoint of the response, the EC50, lay at 30 µM.
Still for that read-out and setting: then `O=C1N=c2c(F)cccc2=C1c1[nH]c2ccccc2c1NO` [7-fluoro-3-[3-(hydroxyamino)-1H-indol-2-yl]-2-indolone], with 30 µM; and `O=C1Nc2ccccc2/C1=C1/Nc2ccccc2C1=O` [2-[(3Z)-2-oxo-2,3-dihydro-1H-indol-3-ylidene]-2,3-dihydro-1H-indol-3-one], with 30 µM; and `O=C1Nc2ccc(Br)cc2C1=C1Nc2ccccc2C1=O`, with 30 µM.
Molecule `COc1ccc2cc([C@@H](C)C(=O)O)ccc2c1` [sodium;(2R)-2-(6-methoxy-2-naphthalenyl)propanoate] returned an EC50 of 3.11 µM.
`O=C1N=c2ccccc2=C1c1[nH]c2ccccc2c1NO` [3-[3-(hydroxyamino)-1H-indol-2-yl]-2-indolone] registered an EC50 of 30 µM.
The molecule `O=C1NC(=S)N/C1=C1\C(=O)Nc2ccccc21` [(3Z)-3-(5-oxo-2-sulfanylideneimidazolidin-4-ylidene)-1H-indol-2-one] returned an EC50 of 30 µM.
On the same count and under the same terms, to `O=C1N=c2c(Cl)cccc2=C1c1[nH]c2ccccc2c1NO` [7-chloro-3-[3-(hydroxyamino)-1H-indol-2-yl]-2-indolone] belongs 30 µM; to `O=C1N=c2ccc(Br)cc2=C1c1[nH]c2ccccc2c1NO` [5-bromanyl-3-[3-(oxidanylamino)-1H-indol-2-yl]indol-2-one], 30 µM; to `O=C1Nc2c(F)cccc2C1=C1Nc2ccccc2C1=O`, 30 µM.

Still in this test, the particulars now being: inactive by the depositor's call.
`CC(C(=O)O)c1cccc(C(=O)c2ccccc2)c1` (configuration not stated) [2-(3-benzoylphenyl)propanoic acid] showed a half-maximal effective concentration (EC50) of 30 µM.
In turn, `CC(C)Cc1ccc([C@H](C)C(=O)O)cc1` [(S)-2-(4-Isobutyl-phenyl)-propionic acid] came in with an EC50 of 30 µM.
Turning to `COc1ccc(S(=O)(=O)n2c(N)c(C#N)c(-c3ccccc3)c2C(=O)c2ccc(Br)cc2)cc1`, the concentration giving a half-maximal response (EC50) was found to be 30 µM.
Take `N#Cc1c(-c2ccc(Cl)cc2)c(C(=O)c2ccccc2)n(S(=O)(=O)c2ccc([N+](=O)[O-])cc2)c1N` [UNM-0000305780]: the EC50 was found to be 30 µM.
Consider `COc1ccc(S(=O)(=O)n2c(N)c(C#N)c(-c3cncc(Br)c3)c2C(=O)c2ccccc2)cc1` [2-amino-5-benzoyl-4-(5-bromo-3-pyridinyl)-1-(4-methoxyphenyl)sulfonyl-3-pyrrolecarbonitrile], for which the EC50 worked out at 30 µM.
Molecule `O=C(C#Cc1ccccc1)c1ccc(F)cc1` [UNM-0000306059] displayed an EC50 of 31 µM.
In turn, `CC1=C(CC(=O)O)c2cc(F)ccc2/C1=C/c1ccc([S+](C)[O-])cc1` (configuration not stated) [UNM-0000306136] came in with a concentration giving a half-maximal response (EC50) of 30 µM.
Consider `O=C1Nc2cccc(Br)c2/C1=C1/Cc2ccccc2C1=O`, for which it took 30 µM to reach a half-maximal effect (EC50).
Take `O=[N+]([O-])c1ccc(C#Cc2ccccc2)cc1`: the EC50 was 30 µM.
On the same count and under the same terms, then `CC(=O)Oc1ccccc1C(=O)O` [2-(acetyloxy)benzoic acid], with 30 µM.
Turning to `O=C(C#Cc1ccccc1)c1ccc(Cl)cc1` [UNM-0000306055], the EC50 was 30 µM.
As for `N#Cc1ccc(C(=O)C#Cc2ccccc2)cc1` [4-(3-phenylprop-2-ynoyl)benzenecarbonitrile], a half-maximal effect (EC50) was put at 30 µM.
`COc1ccc2cc(CC(=O)O)ccc2c1` [2-(6-methoxynaphthalen-2-yl)ethanoic acid]: the midpoint of the response, the EC50, lay at 30 µM.
Regarding `O=C(C#Cc1ccccc1)c1ccccc1` [UNM-0000306039], the half-maximal effective concentration (EC50) stood at 30 µM.
`O=C(C#Cc1ccccc1)c1ccc(OC(F)(F)F)cc1`: the half-maximal effective concentration (EC50) amounted to 30 µM.
Same read-out and setting: to `O=C(C#Cc1ccccc1)c1ccc([N+](=O)[O-])cc1` [1-(4-nitrophenyl)-3-phenyl-2-propyn-1-one] belongs 30 µM.
The molecule `CSc1ccc(/C=C2/C(C)=C(CC(=O)O)c3cc(F)ccc32)cc1` [{6-Fluoro-2-methyl-3-[1-(4-methylsulfanyl-phenyl)-meth-(E)-ylidene]-3H-inden-1-yl}-acetic acid] displayed an EC50 of 30 µM.
The molecule `O=C(C#Cc1ccccc1)c1ccccc1[N+](=O)[O-]` [UNM-0000306038] displayed an EC50 of 30 µM.
`O=C1Nc2ccccc2/C1=C1/Cc2ccccc2C1=O` [UNM-0000305763] had a concentration for a half-maximal effect (EC50) of 30 µM.
In the case of `COc1ccc(C(=O)C#Cc2ccccc2)cc1` [1-(4-methoxyphenyl)-3-phenyl-2-propyn-1-one], the half-maximal effective concentration (EC50) is 30 µM.
Turning to `O=C1Nc2c(Br)cccc2/C1=C1/Cc2ccccc2C1=O` [(3E)-7-bromo-3-(3-oxo-1H-inden-2-ylidene)-1H-indol-2-one], the half-maximal effective concentration (EC50) was determined as 30 µM.
Same read-out and setting: to `COc1cc(-c2c(C#N)c(N)n(S(=O)(=O)c3c(C(C)C)cc(C(C)C)cc3C(C)C)c2C(=O)c2ccccc2)cc(OC)c1OC` [2-azanyl-5-(phenylcarbonyl)-4-(3,4,5-trimethoxyphenyl)-1-[2,4,6-tri(propan-2-yl)phenyl]sulfonyl-pyrrole-3-carbonitrile] belongs 30 µM; to `O=C(C#Cc1ccccc1)c1cccnc1` [3-phenyl-1-pyridin-3-ylprop-2-yn-1-one], 30 µM; to `CCCCS(=O)(=O)n1c(N)c(C#N)c(-c2cc(OC)c(OC)c(OC)c2)c1C(=O)c1ccccc1` [2-amino-5-benzoyl-1-butylsulfonyl-4-(3,4,5-trimethoxyphenyl)-3-pyrrolecarbonitrile], 30 µM.
`COC(=O)c1ccc(C(=O)C#Cc2ccccc2)cc1` [4-(1-oxo-3-phenylprop-2-ynyl)benzoic acid methyl ester]: it took 30 µM to reach a half-maximal effect (EC50).
Same read-out and setting: to `COc1ccc(-c2c(C#N)c(N)n(S(C)(=O)=O)c2C(=O)c2ccccc2)cc1Br` [2-azanyl-4-(3-bromanyl-4-methoxy-phenyl)-1-methylsulfonyl-5-(phenylcarbonyl)pyrrole-3-carbonitrile] belongs 30 µM; to `COc1ccc(S(=O)(=O)n2c(N)c(C#N)c(-c3cc(Br)c(OC)c(OC)c3)c2C(=O)c2ccccc2)cc1` [UNM-0000305782], 30 µM.
